Reference: patent US4772586A, “Novel derivatives of arginine vasopressin antagonists” (Medical College of Ohio, priority 1986, dated 1988)
*1 amine or outer side, *2 acyl side, *3 side chain or, on linkers, in order; H or OH if unused. Where a SMILES comes first, the peptide text is derived from it. Bridges are numbered along the chain shown (N, C = ends). [ ]: non-standard residue; d: D form. The star is where a group is joined. Ethylenediamine = C(CN[*:2])N[*:1]; X1 = O=C(CC1(S[*:2])CCCCC1)[*:1]; NHCH2CH2OH = OCCN*; Sar = CNCC(=O)O; NHBu = CCCCN*

How the values were obtained:
[1] = test system: vasopressor response to arginine vasopressin; experiment: Antagonism to the vasopressor response (Anti-VP); assay type: in vivo; conditions: for Anti-VP Potency pA2 / Anti-VP pA2: estimated in vivo pA2; for Anti-VP pA2: Table 1
Outline: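 In vivo antagonism of arginine vasopressin pressor response per Dyckes et al. Effective dose (nmol/kg) is the antagonist dose making the response to 2x agonist units, injected 20 min later, equal that to 1x units. pA2 is the negative log of effective dose divided by 67 ml/kg distribution volume.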

[2] = test system: antidiuretic response to arginine vasopressin; experiment: Antagonism of the antidiuretic response to arginine vasopressin (Anti-ADH); assay type: in vivo, rats; conditions: for Anti-ADH Potency pA2: estimated in vivo pA2; for Anti-ADH pA2: Table 1, estimated in vivo pA2 = negative log of effective dose divided by volume of distribution (67 ml/kg)
Outline: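 Compounds were given intravenously to ethanol-anesthetized, water-loaded rats, followed by arginine vasopressin challenge. Effective dose (nmol/kg) is the antagonist dose that reduces the response to 2x units of agonist, given 20 min later, to the response to 1x units. pA2 is the negative log of effective dose divided by an estimated 67 ml/kg distribution volume.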

| Compound | Anti-VP Potency pA2 ([1]; Table 4, ^+ = mixed) | Anti-ADH Potency pA2 ([2]; Table 4) | other results |
| --- | --- | --- | --- |
| COc1ccc(C[C@@H]2NC(=O)CC3(CCCCC3)SSC[C@@H](C(=O)N3CCC[C@H]3C(=O)N[C@@H](CCCNC(=N)N)C(=O)N[C@@H](C)C(N)=O)NC(=O)[C@H](CC(N)=O)NC(=O)[C@H](CCC(N)=O)NC(=O)[C@H](Cc3ccccc3)NC2=O)cc1 [Example 9(b), [1-(beta-mercapto-beta,beta-cyclopentamethylenepropionic acid), 2-(O-methyl)tyrosine, 9-alaninamide]-argine vasopressin] (Y(Me)FQNCPRA-NH2; linker N-5 via X1) | – | – | Anti-VP: pA2 ([1]; text after Table 2): 8.74±0.08; Anti-ADH: pA2 ([2]; text after Table 2): about 6.0 |
| CCOc1ccc(C[C@H]2NC(=O)CC3(CCCCC3)SSC[C@@H](C(=O)N3CCC[C@H]3C(=O)N[C@@H](CCCNC(=N)N)C(=O)NCCN)NC(=O)[C@H](CC(N)=O)NC(=O)[C@H]([C@@H](C)CC)NC(=O)[C@H](Cc3ccccc3)NC2=O)cc1 [[1-(beta-mercapto-beta,beta-cyclopentamethylenepropionic acid), 2-D-(O-ethyl)tyrosine, 4-isoleucine, 8-arginine-N-(beta-amino)ethylamide, 9-desglycinamide] vasopressin] ([dY](Et)FINCPR-Ethylenediamine; linker N-5 via X1) | 8.33 ± 0.06 | 8.00 ± 0.12 | – |
| CC[C@H](C)[C@@H]1NC(=O)[C@H](Cc2ccccc2)NC(=O)[C@@H](Cc2ccccc2)NC(=O)CC2(CCCCC2)SSC[C@@H](C(=O)N2CCC[C@H]2C(=O)N[C@@H](CCCNC(=N)N)C(=O)NCC(=O)NCC(N)=O)NC(=O)[C@H](CC(N)=O)NC1=O [[1-(beta-mercapto-beta,beta-cyclopentamethylenepropionic acid), 2-D-phenylalanine, 4-isoleucine, 9-glycine]-arginine vasopressinyl glycinamide] ([dF]FINCPRGG-NH2; linker N-5 via X1) | 7.72 | 7.83 ± 0.04 | – |
| CC[C@H](C)[C@@H]1NC(=O)[C@H](Cc2ccccc2)NC(=O)[C@@H](Cc2ccccc2)NC(=O)CC2(CCCCC2)SSC[C@@H](C(=O)N2CCC[C@H]2C(=O)N[C@@H](CCCNC(=N)N)C(=O)NCC(=O)O)NC(=O)[C@H](CC(N)=O)NC1=O [d(CH2)5 [D-Phe^2,Ile^ 4]AVP acid, [1-(beta-mercapto-beta,beta-cyclopentamethylenepropionic acid), 2-D-phenylalanine, 4-isoleucine, 9-glycine]-arginine vasopressin] ([dF]FINCPRG-OH; linker N-5 via X1) | – | – | Anti-VP pA2 [1]: 6.94 ± 0.08; Anti-ADH pA2 [2]: 7.11 ± 0.11 |
| COc1ccc(C[C@@H]2NC(=O)CC3(CCCCC3)SSC[C@@H](C(=O)N3CCC[C@H]3C(=O)N[C@@H](CCCNC(=N)N)C(=O)NCCN)NC(=O)[C@H](CC(N)=O)NC(=O)[C@H](CCC(N)=O)NC(=O)[C@H](Cc3ccccc3)NC2=O)cc1 [[1(beta-mercapto-beta,beta-cyclopentamethylenepropionic acid), 2-(O-methyl)tyrosine, 8-arginine-N-(beta-amino)ethylamide, 9-desglycinamide] vasopressin] (Y(Me)FQNCPR-Ethylenediamine; linker N-5 via X1) | 8.75 ± 0.06 | ~ 6.3 | – |
| CC[C@H](C)[C@@H]1NC(=O)[C@H](Cc2ccccc2)NC(=O)[C@@H](Cc2ccccc2)NC(=O)CC2(CCCCC2)SSC[C@@H](C(=O)N2CCC[C@H]2C(=O)N[C@@H](CCCNC(=N)N)C(=O)O)NC(=O)[C@H](CC(N)=O)NC1=O [[1-(beta-mercapto-beta,beta-cyclopentamethylenepropionic acid), 2-D-phenylalanine, 4-isoleucine, 9-desglycinamide]-arginine vasopressin] ([dF]FINCPR-OH; linker N-5 via X1) | 7.84 ± 0.03 | 8.05 ± 0.09 | Anti-VP pA2 [1]: 6.74 ± 0.08; Anti-ADH pA2 [2]: 7.20 ± 0.10 |
| CNC(=O)CN(C)C(=O)[C@H](CCCNC(=N)N)NC(=O)[C@@H]1CCCN1C(=O)[C@@H]1CSSC2(CCCCC2)CC(=O)N[C@@H](Cc2ccc(OC)cc2)C(=O)N[C@@H](Cc2ccccc2)C(=O)N[C@@H](CCC(N)=O)C(=O)N[C@@H](CC(N)=O)C(=O)N1 [d(CH2)5 [Tyr(Me)^2, Sar(NHMe)^9]AVP, [1-(beta-mercapto-beta,beta-cyclopentamethylenepropionic acid), 2-O-methyltyrosine, 9-sarcosine-N-methylamide]-arginine vasopressin] (Y(Me)FQNCPR[Sar]-NHMe; linker N-5 via X1) | 8.31 ± 0.03 | ~ 5.5 | – |
| CC[C@H](C)[C@@H]1NC(=O)[C@H](Cc2ccccc2)NC(=O)[C@@H](Cc2ccccc2)NC(=O)CC2(CCCCC2)SSC[C@@H](C(=O)N2CCC[C@H]2C(=O)N[C@@H](CCCNC(=N)N)C(=O)NCCO)NC(=O)[C@H](CC(N)=O)NC1=O [[1-(beta-mercapto-beta,beta-cyclopentamethylenepropionic acid), 2-D-phenylalanine, 4-isoleucine, 8-arginine-N-(beta-hydroxy)ethylamide, 9-desglycinamide] vasopressin] ([dF]FINCPR-NHCH2CH2OH; linker N-5 via X1) | 7.45 ± 0.12 | 8.17 ± 0.10 | – |
| CC[C@H](C)[C@@H]1NC(=O)[C@H](Cc2ccccc2)NC(=O)[C@@H](Cc2ccccc2)NC(=O)CC2(CCCCC2)SSC[C@@H](C(=O)N2CCC[C@H]2C(=O)N[C@@H](CCCNC(=N)N)C(N)=O)NC(=O)[C@H](CC(N)=O)NC1=O [desGly^9 d(CH2)5 [D-Phe^2,Ile^ 4]AVP, [1-(beta-mercapto-beta,beta-cyclopentamethylenepropionic acid), 2-D-phenylalanine, 4-isoleucine, 9-desglycine]-arginine vasopressin] ([dF]FINCPR-NH2; linker N-5 via X1) | – | – | Anti-VP pA2 [1]: 7.84 ± 0.03; Anti-ADH pA2 [2]: 8.05 ± 0.09 |
| CCOc1ccc(C[C@H]2NC(=O)CC3(CCCCC3)SSC[C@@H](C(=O)N3CCC[C@H]3C(=O)N[C@@H](CCCNC(=N)N)C(N)=O)NC(=O)[C@H](CC(N)=O)NC(=O)[C@H](C(C)C)NC(=O)[C@H](Cc3ccccc3)NC2=O)cc1 [desGly^9 d(CH2)5 [D-Tyr(Et)^2]VAVP, [1-(beta-mercapto-beta,beta-cyclopentamethylenepropionic acid), 2-D-(O-ethyl)tyrosine, 4-valine, 9-desglycine]-arginine vasopressin] ([dY](Et)FVNCPR-NH2; linker N-5 via X1) | – | – | Anti-VP pA2 [1]: 8.17 ± 0.04; Anti-ADH pA2 [2]: 7.69 ± 0.08 |
| CC[C@H](C)[C@@H]1NC(=O)[C@H](Cc2ccccc2)NC(=O)[C@@H](Cc2ccccc2)NC(=O)CC2(CCCCC2)SSC[C@@H](C(=O)N2CCC[C@H]2C(=O)N[C@@H](CCCNC(=N)N)C(=O)N[C@@H](Cc2ccccc2)C(N)=O)NC(=O)[C@H](CC(N)=O)NC1=O [Phe(NH2), [1-(beta-mercapto-beta,beta-cyclopentamethylenepropionic acid), 2-D-phenylalanine, 4-isoleucine, 9-phenylalaninamide]-arginine vasopressin] ([dF]FINCPRF-NH2; linker N-5 via X1) | – | – | Anti-VP Potency pA2 ([1]; Table 2): 7.28 ± 0.11; Anti-ADH Potency pA2 ([2]; Table 2): 7.69 ± 0.09 |
| CCOc1ccc(C[C@H]2NC(=O)CC3(CCCCC3)SSC[C@@H](C(=O)N3CCC[C@H]3C(=O)N[C@@H](CCCNC(=N)N)C(=O)NCCO)NC(=O)[C@H](CC(N)=O)NC(=O)[C@H]([C@@H](C)CC)NC(=O)[C@H](Cc3ccccc3)NC2=O)cc1 [[1-(beta-mercapto-beta,beta-cyclopentamethylenepropionic acid), 2-D-(O-ethyl)tyrosine, 4-isoleucine, 8-arginine-N-(beta-hydroxy)ethylamide, 9-desglycinamide] vasopressin] ([dY](Et)FINCPR-NHCH2CH2OH; linker N-5 via X1) | 7.89 ± 0.09 | 7.82 ± 0.06 | – |
| CCOc1ccc(C[C@H]2NC(=O)CC3(CCCCC3)SSC[C@@H](C(=O)N3CCC[C@H]3C(=O)N[C@@H](CCCNC(=N)N)C(=O)NCC(=O)NCCN)NC(=O)[C@H](CC(N)=O)NC(=O)[C@H]([C@@H](C)CC)NC(=O)[C@H](Cc3ccccc3)NC2=O)cc1 [[1-(beta-mercapto-beta,beta-cyclopentamethylenepropionic acid), 2-D-(O-ethyl)tyrosine, 4-isoleucine, 9-glycine-N-(beta-amino)ethylamide]-arginine vasopressin] ([dY](Et)FINCPRG-Ethylenediamine; linker N-5 via X1) | 8.07 ± 0.03 | 7.86 ± 0.04 | – |
| CCCCNC(=O)[C@H](CCCNC(=N)N)NC(=O)[C@@H]1CCCN1C(=O)[C@@H]1CSSC2(CCCCC2)CC(=O)N[C@H](Cc2ccc(OCC)cc2)C(=O)N[C@@H](Cc2ccccc2)C(=O)N[C@@H]([C@@H](C)CC)C(=O)N[C@@H](CC(N)=O)C(=O)N1 [[1-beta-mercapto-beta,beta-cyclopentamethylenepropionic acid), 2-(D-O-ethyl)tyrosine, 4-isoleucine, 8-arginine-N-(n-butyl)amide, 9-desglycinamide] vasopressin] ([dY](Et)FINCPR-NHBu; linker N-5 via X1) | 7.51 ± 0.08 | 7.62 ± 0.09 | – |
